Measurements published in patent US20040072746A1, “Inhibitors of monocarboxylate transport” (priority 2001, published 2004).

Columns and labels:
MDA-MB-231 cell line = assay: Filter binding of 3H-ligand C to MDA-MB-231 cells; set-up: species or system human; details: untransfected MDA-MB-231
Description: The human breast cell line MDA-MB-231 had been previously identified as expressing low levels of MCT1 (Garcia et al., Cell. 76:865-873, 1994). The MDA-MB-231 cell line was grown. […] The cells were grown and transfected with pcDNA3-hMCT1. An increase in filter binding of ^3H-ligand C was consistently measured for transiently transfected cells when compared with control cells transfected with empty vector.

MCT1 = biological target: T1, MCT1 (Homo sapiens, UniProt P53985, D490E); assay: MCT filter binding assay, yeast membranes, radioligand specific binding; set-up: made in house; host or cells: Saccharomyces cerevisiae BY4742 (jen1 deletion), membrane preparation; plasmid pACES14-hMCT1; details: ~2.5 nM radioligand
T1 sequence (P53985 1-500 D490E): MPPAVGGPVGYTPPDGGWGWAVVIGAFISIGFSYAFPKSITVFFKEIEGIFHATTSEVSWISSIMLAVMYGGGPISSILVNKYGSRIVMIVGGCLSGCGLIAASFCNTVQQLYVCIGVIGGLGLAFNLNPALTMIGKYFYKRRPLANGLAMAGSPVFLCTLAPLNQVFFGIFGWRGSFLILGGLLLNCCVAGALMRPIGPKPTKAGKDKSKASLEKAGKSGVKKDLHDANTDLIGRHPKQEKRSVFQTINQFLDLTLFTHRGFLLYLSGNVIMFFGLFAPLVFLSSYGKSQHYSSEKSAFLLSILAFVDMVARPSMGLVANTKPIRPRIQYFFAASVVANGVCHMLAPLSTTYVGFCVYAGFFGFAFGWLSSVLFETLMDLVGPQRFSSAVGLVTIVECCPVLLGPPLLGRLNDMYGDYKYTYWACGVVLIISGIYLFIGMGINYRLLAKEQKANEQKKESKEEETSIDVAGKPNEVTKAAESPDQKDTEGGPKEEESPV
Description: (§1) For yeast cells transformed with expression plasmids containing the human MCT 1-4 ORFs the ability of membrane preparations to bind radioligand was determined using a single ligand concentration/multi protein concentration binding assay. This generated an estimate of the amount of active binding protein present in each membrane preparation. The ligand concentration used will give an estimate of Bmax that is approximately 90% of the true value. 10 μl of ligand A, B or C that had been diluted 50 fold with assay buffer (50 mM HEPES, 0.1 mM EDTA, 0.15 M NaCl, pH 7.5, 0.5% BSA) was dispensed into wells of a polypropylene microtitre plate. This gives a final radiolabelled ligand concentration of ˜2.5 nM. […] The membranes were diluted to give a known amount/180 μl assay buffer. This is typically in the […] range. For the membranes with high binding site number a more dilute membrane preparation should be added. 180 μl of each membrane solution was then added to each well and incubated at 2 hours at room temperature with shaking. The membranes were harvested onto GF-B filter plates and washed with assay buffer without BSA, dried, scintillant added and counts detected using the relevant program for each ligand on a Packard Top Count plate reader.

[1] = MCT filter binding assay, yeast membranes transformed with vector only; details: ~2.5 nM radioligand
Description: as §1

human MCT3 = biological target: T2, human MCT3 (Homo sapiens, UniProt O95907); assay: MCT filter binding assay, yeast membranes, radioligand specific binding; details: ~2.5 nM radioligand
T2 construct: the full length open reading frame of human MCT3 was subcloned into the S. cerevisiae expression plasmid pACES14; made in house; host or cells: Saccharomyces cerevisiae BY4742 (jen1 deletion), membrane preparation; plasmid pACES14-hMCT3
T2 sequence (O95907 1-504): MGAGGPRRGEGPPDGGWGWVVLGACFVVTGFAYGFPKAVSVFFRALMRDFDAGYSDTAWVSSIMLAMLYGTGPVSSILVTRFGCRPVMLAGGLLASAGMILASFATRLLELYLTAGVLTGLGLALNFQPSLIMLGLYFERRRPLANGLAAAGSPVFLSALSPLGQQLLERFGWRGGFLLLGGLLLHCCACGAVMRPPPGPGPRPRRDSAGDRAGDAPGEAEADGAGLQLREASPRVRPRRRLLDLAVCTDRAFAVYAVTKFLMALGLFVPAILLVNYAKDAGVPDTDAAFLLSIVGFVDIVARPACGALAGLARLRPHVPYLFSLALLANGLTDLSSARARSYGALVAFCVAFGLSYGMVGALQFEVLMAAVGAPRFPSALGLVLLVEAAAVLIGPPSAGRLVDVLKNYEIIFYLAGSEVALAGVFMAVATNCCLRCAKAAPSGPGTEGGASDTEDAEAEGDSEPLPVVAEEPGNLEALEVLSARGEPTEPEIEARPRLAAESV
Description: as §1

human MCT2 = biological target: T3, human MCT2 (Homo sapiens, UniProt O60669); assay: as above; details: ~2.5 nM radioligand
T3 construct: The full length open reading frame for human MCT2 was then subcloned into the S. cerevisiae expression plasmid, pACES14; made in house; host or cells: Saccharomyces cerevisiae BY4742 (jen1 deletion), membrane preparation; plasmid pACES14-hMCT2
T3 sequence (O60669 1-478): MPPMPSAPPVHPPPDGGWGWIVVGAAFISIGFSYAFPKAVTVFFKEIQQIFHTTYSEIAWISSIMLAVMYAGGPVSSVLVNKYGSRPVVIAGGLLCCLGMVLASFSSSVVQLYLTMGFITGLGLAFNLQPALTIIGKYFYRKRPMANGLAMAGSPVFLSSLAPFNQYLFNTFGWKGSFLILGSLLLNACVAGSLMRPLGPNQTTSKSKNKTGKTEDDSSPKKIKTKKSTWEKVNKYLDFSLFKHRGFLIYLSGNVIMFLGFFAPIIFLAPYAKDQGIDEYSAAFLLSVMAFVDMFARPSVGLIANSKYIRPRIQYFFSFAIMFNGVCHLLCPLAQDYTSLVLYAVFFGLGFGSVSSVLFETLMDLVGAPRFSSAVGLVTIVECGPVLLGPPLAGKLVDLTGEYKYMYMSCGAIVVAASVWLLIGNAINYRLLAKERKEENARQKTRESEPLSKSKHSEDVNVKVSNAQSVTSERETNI
Description: as §1

human MCT4 = biological target: T4, human MCT4 (Homo sapiens, UniProt O15427); assay: as above; details: ~2.5 nM radioligand
T4 construct: from the full length copy and subcloned into the S. cerevisiae expression plasmid pACES14; made in house; host or cells: Saccharomyces cerevisiae BY4742 (jen1 deletion), membrane preparation; plasmid pACES14-hMCT4
T4 sequence (O15427 1-465): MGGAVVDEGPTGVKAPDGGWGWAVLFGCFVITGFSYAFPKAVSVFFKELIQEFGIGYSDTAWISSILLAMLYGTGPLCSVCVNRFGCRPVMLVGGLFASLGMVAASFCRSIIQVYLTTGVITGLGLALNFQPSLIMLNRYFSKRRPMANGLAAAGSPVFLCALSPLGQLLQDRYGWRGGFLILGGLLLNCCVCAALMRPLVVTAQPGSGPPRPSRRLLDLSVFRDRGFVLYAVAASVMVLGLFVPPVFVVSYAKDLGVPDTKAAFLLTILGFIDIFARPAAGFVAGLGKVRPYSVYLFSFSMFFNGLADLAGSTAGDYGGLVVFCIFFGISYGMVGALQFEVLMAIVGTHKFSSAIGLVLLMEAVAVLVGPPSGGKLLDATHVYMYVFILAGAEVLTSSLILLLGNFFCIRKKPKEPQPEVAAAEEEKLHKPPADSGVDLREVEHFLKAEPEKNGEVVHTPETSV
Description: as §1

SMILES: [3H]CC([3H])(C[3H])Cn1c(=O)n(C)c(=O)c2c(SCCCO)n(Cc3cccc4ccccc34)cc21 [Ligand C, 5-[(3-Hydroxypropyl)thio]-1-([2,3,3′-^3H]isobutyl)-3-methyl-6-(1-naphthalenylmethyl)-1H-pyrrolo[3,4-d]pyrimidine-2,4(3H,6H)-dione]
- binding sites per cell (MDA-MB-231 cell line): ~6000 binding sites per cell
- Specific binding (cpm) Average (MCT1; MCT1 (2 ug)): 3621 cpm
- Specific binding (cpm) Average (MCT1; MCT1 (20 ug)): 5553 cpm
- Specific binding (cpm) Average ([1]; vector (2 ug)): 0 cpm
- Specific binding (cpm) Average ([1]; vector (20 ug)): 0 cpm
- Specific binding (cpm) Average (human MCT3; MCT3 (2 ug)): 0 cpm
- Specific binding (cpm) Average (human MCT3; MCT3 (20 ug)): 40 cpm
- Specific binding (cpm) Average (human MCT2; MCT2 (2 ug)): 593 cpm
- Specific binding (cpm) Average (human MCT2; MCT2 (20 ug)): 213 cpm
- Specific binding (cpm) Average (human MCT4; MCT4 (2 ug)): 81 cpm
- Specific binding (cpm) Average (human MCT4; MCT4 (20 ug)): 0 cpm
